Reference: patent US9723840B2 (SYNGENTA PARTICIPATIONS AG, priority 2013, dated 2017)

Key:
Format in all cases: in vivo
Amaranthus retroflexus [1] = experiment: Pre-emergence herbicidal activity, AMARE; parameters: key: 5=total damage to plant; 0=no damage to plant; conditions: 1000 g/Ha, pre-emergence spray, evaluated after 13 days, scale 0-5
Description: (§1) Seeds of a variety of test species were sown in standard soil in pots. After cultivation for one day (pre-emergence) under controlled conditions in a glasshouse (at 24/16° C., day/night; 14 hours light; 65% humidity), the plants were sprayed with an aqueous spray solution derived from the formulation of the technical active ingredient in acetone/water (50:50) solution containing 0.5% Tween 20 (polyoxyethelyene sorbitan monolaurate, CAS RN 9005-64-5). The test plants were then grown in a glasshouse under controlled conditions (at 24/16° C., day/night; 14 hours light; 65% humidity) and watered twice daily. After 13 days, the test was evaluated (5=total damage to plant; 0=no damage to plant).

Abutilon theophrasti [2] = experiment: Pre-emergence herbicidal activity, ABUTH; parameters: key: 5=total damage to plant; 0=no damage to plant; conditions: 1000 g/Ha, pre-emergence spray, evaluated after 13 days, scale 0-5
Description: as §1

Setaria faberi [3] = experiment: Pre-emergence herbicidal activity, SETFA; parameters: key: 5=total damage to plant; 0=no damage to plant; conditions: 1000 g/Ha, pre-emergence spray, evaluated after 13 days, scale 0-5
Description: as §1

Echinochloa crus-galli [4] = experiment: Pre-emergence herbicidal activity, ECHCG; parameters: key: 5=total damage to plant; 0=no damage to plant; conditions: 1000 g/Ha, pre-emergence spray, evaluated after 13 days, scale 0-5
Description: as §1

Alopecurus myosuroides [5] = experiment: Pre-emergence herbicidal activity, ALOMY; conditions: 1000 g/Ha, pre-emergence spray, evaluated after 13 days, scale 0-5
Description: as §1

Zea mays [6] = experiment: Pre-emergence herbicidal activity, ZEAMX; conditions: 1000 g/Ha, pre-emergence spray, evaluated after 13 days, scale 0-5
Description: as §1

Amaranthus retroflexus [7] = experiment: Post-emergence herbicidal activity, AMARE; parameters: key: 5=total damage to plant; 0=no damage to plant; conditions: 1000 g/Ha, post-emergence spray (8 days cultivation), evaluated after 13 days, scale 0-5
Description: (§2) Seeds of a variety of test species were sown in standard soil in pots. After 8 days cultivation (post-emergence) under controlled conditions in a glasshouse (at 24/16° C., day/night; 14 hours light; 65% humidity), the plants were sprayed with an aqueous spray solution derived from the formulation of the technical active ingredient in acetone/water (50:50) solution containing 0.5% Tween 20 (polyoxyethelyene sorbitan monolaurate, CAS RN 9005-64-5). The test plants were then grown in a glasshouse under controlled conditions (at 24/16° C., day/night; 14 hours light; 65% humidity) and watered twice daily. After 13 days, the test was evaluated (5=total damage to plant; 0=no damage to plant).

Abutilon theophrasti [8] = experiment: Post-emergence herbicidal activity, ABUTH; parameters: key: 5=total damage to plant; 0=no damage to plant; conditions: 1000 g/Ha, post-emergence spray (8 days cultivation), evaluated after 13 days, scale 0-5
Description: as §2

Alopecurus myosuroides [9] = experiment: Post-emergence herbicidal activity, ALOMY; parameters: key: 5=total damage to plant; 0=no damage to plant; conditions: 1000 g/Ha, post-emergence spray (8 days cultivation), evaluated after 13 days, scale 0-5
Description: as §2

Echinochloa crus-galli [10] = experiment: Post-emergence herbicidal activity, ECHCG; parameters: key: 5=total damage to plant; 0=no damage to plant; conditions: 1000 g/Ha, post-emergence spray (8 days cultivation), evaluated after 13 days, scale 0-5
Description: as §2

Zea mays [11] = experiment: Post-emergence herbicidal activity, ZEAMX; parameters: key: 5=total damage to plant; 0=no damage to plant; conditions: 1000 g/Ha, post-emergence spray (8 days cultivation), evaluated after 13 days, scale 0-5
Description: as §2

Setaria faberi [12] = experiment: Post-emergence herbicidal activity, SETFA; parameters: key: 5=total damage to plant; 0=no damage to plant; conditions: 1000 g/Ha, post-emergence spray (8 days cultivation), evaluated after 13 days, scale 0-5
Description: as §2

| SMILES | AMARE damage score, application pre-emergence (Amaranthus retroflexus [1]) | ABUTH damage score, application pre-emergence (Abutilon theophrasti [2]) | SETFA damage score, application pre-emergence (Setaria faberi [3]) | ECHCG damage score, application pre-emergence (Echinochloa crus-galli [4]) | ALOMY damage score, application pre-emergence (Alopecurus myosuroides [5]) | ZEAMX damage score, application pre-emergence (Zea mays [6]) | AMARE damage score, application post-emergence (Amaranthus retroflexus [7]) | ABUTH damage score, application post-emergence (Abutilon theophrasti [8]) | ALOMY damage score, application post-emergence (Alopecurus myosuroides [9]) | ECHCG damage score, application post-emergence (Echinochloa crus-galli [10]) | ZEAMX damage score, application post-emergence (Zea mays [11]) | SETFA damage score, application post-emergence (Setaria faberi [12]) |
| --- | --- | --- | --- | --- | --- | --- | --- | --- | --- | --- | --- | --- |
| CC1C(O)N(c2cc(C(C)(F)F)c(Cl)nn2)C(=O)N1C (centres unmarked) [Example A11] | 5 | 5 | 5 | 5 | 4 | 4 | 5 | 5 | 5 | 5 | 5 | 5 |
| CC1C(O)N(c2cc(C(C)(C)F)c(-c3ccccc3)nn2)C(=O)N1C (centres unmarked) [Example A3] | 5 | 5 | 5 | 4 | 4 | 3 | 5 | 5 | 4 | 5 | 4 | 5 |
| CN1CC(O)N(c2cc(C(F)(F)F)cnn2)C1=O (centres unmarked) [Example A7, 4-hydroxy-1-methyl-3-[5-(trifluoromethyl)pyridazin-3-yl]imidazolidin-2-one] | 5 | 5 | 5 | 5 | 4 | 2 | 5 | 5 | 5 | 5 | 5 | 5 |
| CCOC1C(O)N(c2cc(C(F)(F)F)cnn2)C(=O)N1C (centres unmarked) [Example A24] | 5 | 5 | 5 | 4 | – | 2 | – | – | – | 5 | – | – |
| CC1C(O)N(c2cc(C(F)(F)F)c(Cl)nn2)C(=O)N1C (centres unmarked) [Example A16] | 5 | 5 | 3 | 5 | – | 3 | 5 | 5 | – | 5 | 3 | 5 |
| CN1CC(O)N(c2cc(C(C)(F)F)cnn2)C1=O (centres unmarked) [Example A20] | 5 | 5 | 5 | 5 | – | 3 | 5 | 5 | – | 5 | 5 | 5 |
| CC1C(O)N(c2cc(C(F)(F)F)cnn2)C(=O)N1C (centres unmarked) [Example A21] | 5 | 5 | 5 | 5 | – | 3 | 5 | 5 | – | 5 | 5 | 5 |
| CN1CC(O)N(c2cc(C(C)(C)F)c(-c3ccccc3)nn2)C1=O (centres unmarked) [Example A4] | 5 | – | 5 | 5 | 4 | – | 5 | 5 | 5 | 5 | 5 | 5 |
| CN1CC(O)N(c2ccc(C(=O)NC(C)(C)C)nn2)C1=O (centres unmarked) [Example A25] | 5 | 5 | 5 | 5 | – | 2 | 5 | 5 | – | 5 | 3 | 5 |
| CN1C(=O)N(c2cc(C(F)(F)F)c(Cl)nn2)C(O)C1O (centres unmarked) [Example A22] | 5 | 5 | 4 | 2 | – | 1 | 5 | 5 | – | 5 | 3 | 5 |
| CN1CC(O)N(c2cc(C(C)(C)F)cnn2)C1=O (centres unmarked) [Example A18] | 5 | 5 | 4 | 5 | – | 2 | 5 | 5 | – | 5 | 4 | 5 |
| CCOC1C(O)N(c2cc(C(F)(F)F)c(Cl)nn2)C(=O)N1C (centres unmarked) [Example A23] | 5 | 5 | 5 | 5 | – | 2 | 5 | 5 | – | 5 | 3 | 5 |
